Measured values as given in BindingDB's records for doi:10.7270/Q2BG2MFK (Nmmlsc, 2010).

Target: T1, Regulator of G-protein signaling 19 (Homo sapiens, UniProt P49795)
T1 sequence (P49795 whole entry): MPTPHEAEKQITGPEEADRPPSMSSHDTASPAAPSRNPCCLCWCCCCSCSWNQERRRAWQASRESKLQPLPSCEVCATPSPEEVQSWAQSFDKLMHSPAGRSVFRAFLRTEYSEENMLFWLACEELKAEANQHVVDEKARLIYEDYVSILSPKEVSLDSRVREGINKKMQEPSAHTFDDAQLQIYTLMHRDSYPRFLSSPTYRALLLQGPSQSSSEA
Experiment: analogs regulating RGS19 interaction with Gαo – biochemical, SAR compounds, multiplexed bead flow cytometry, SAR follow-up (AID 2311)
Settings: not given

First: CCN=c1scc(C)n1N=Cc1ccc(O)c(O)c1O
Second: CN=c1scc(C)n1N=Cc1ccc(O)c(O)c1O [(4E)-2,3-dihydroxy-4-[[(4-methyl-2-methylimino-1,3-thiazol-3-yl)amino]methylidene]cyclohexa-2,5-dien-1-one]
The EC50 of the first is 1.8-fold higher: 0.378 µM for the first, 0.209 µM for the second. The second is the more potent here.

First: Cc1cccc(N2CCN(C(=O)Cn3sc4nc(C)cc(C)c4c3=O)CC2C)c1 (stereo unspecified) [2-[2-keto-2-[3-methyl-4-(m-tolyl)piperazino]ethyl]-4,6-dimethyl-isothiazolo[5,4-b]pyridin-3-one]
Second: Cc1cccc(N2CCN(C(=O)COc3nsc4nc(C)cc(C)c34)CC2C)c1 (stereo unspecified)
The EC50 of the first is 5.9-fold lower: 0.1 µM for the first, 0.59 µM for the second.

First: O=C1C(Cl)=C(N2CCCCC2)C(=O)C(Cl)=C1c1cnc(N2CCCCC2)s1 [MLS000550549]
Second: CN1CCN(C2=C(Cl)C(=O)C(c3cnc(N4CCCCC4)s3)=C(Cl)C2=O)CC1
The EC50 of the first is 3-fold higher: 0.082 µM for the first, 0.027 µM for the second. The second is the more potent here.

First: CCOC(=O)c1sc(NC(=O)CSc2nnc(Cc3ccccc3)o2)c(C#N)c1C [4-cyano-3-methyl-5-[[1-oxo-2-[[5-(phenylmethyl)-1,3,4-oxadiazol-2-yl]thio]ethyl]amino]-2-thiophenecarboxylic acid ethyl ester]
Second: COC(=O)CCC(=O)Nc1sc(C)c(C)c1C(N)=O [4-[(3-carbamoyl-4,5-dimethyl-2-thienyl)amino]-4-keto-butyric acid methyl ester]
The EC50 of the first is lower: 0.155 µM for the first, over 30 µM for the second. The first is the more potent here.

Going from `NS(=O)(=O)c1ccc(N=NCc2ccc(O)c(O)c2O)c([N+](=O)[O-])c1` [4-[[(E)-(2,3-dihydroxy-4-oxo-1-cyclohexa-2,5-dienylidene)methyl]hydrazo]-3-nitrobenzenesulfonamide] to `CCN(CC)S(=O)(=O)c1cccc(C(=O)NN=Cc2ccc(O)c(O)c2O)c1`, the EC50 rises from 0.109 µM to over 30 µM. The first is the more potent here.

Compared with `COc1ccc(C2=CC(=O)C=CC2=O)cc1` [MLS001029846], `O=c1c2ccccc2sn1-c1ccccc1` [2-phenyl-1,2-benzothiazol-3-one] is higher in EC50: 0.169 µM for the first, over 30 µM for the second.

Going from `CC(NC(=O)c1sc2cc([N+](=O)[O-])ccc2c1Cl)C(C)(C)C` (stereo unspecified) [3-chloranyl-N-(3,3-dimethylbutan-2-yl)-6-nitro-1-benzothiophene-2-carboxamide] to `O=C(NCCCN1CCOCC1)c1sc2cc([N+](=O)[O-])ccc2c1Cl` [3-chloranyl-N-(3-morpholin-4-ylpropyl)-6-nitro-1-benzothiophene-2-carboxamide], the EC50 falls from over 30 µM to 0.488 µM.

`CCN(CC)S(=O)(=O)c1cccc(-c2n[nH]c(=S)n2N=Cc2ccc(C(=O)OC)cc2)c1` [4-[(E)-[3-[3-(diethylsulfamoyl)phenyl]-5-thioxo-1H-1,2,4-triazol-4-yl]iminomethyl]benzoic acid methyl ester] and `Cc1[nH]n(-c2ccccc2)c(=S)c1/C=N/c1cccc([N+](=O)[O-])c1` [(4E)-5-methyl-4-[(3-nitroanilino)methylene]-2-phenyl-2-pyrazoline-3-thione] cannot be ordered by EC50: over 30 µM for the first, over 30 µM for the second.

First: O=C(COc1ccccc1C(=O)NN=Cc1ccc(O)c(O)c1)NN=Cc1ccc(O)c(O)c1 [N''-[(Z)-(3-hydroxy-4-oxo-1-cyclohexa-2,5-dienylidene)methyl]-2-[2-[[(Z)-(3-hydroxy-4-oxo-1-cyclohexa-2,5-dienylidene)methyl]hydrazo]-2-oxoethoxy]benzohydrazide]
Second: O=C(Cc1csc(N2CCOCC2)n1)NN=Cc1ccc(O)c(O)c1O [SMR000369439]
The EC50 of the first is higher: over 30 µM for the first, 0.794 µM for the second.

Compared with `Cc1[nH]n(-c2ccccc2)c(=S)c1C=NCCCN=Cc1c(C)[nH]n(-c2ccccc2)c1=S`, `O=c1c2ccccc2sn1-c1ccc(S(=O)(=O)N2CCCC2)cc1` [2-(4-pyrrolidin-1-ylsulfonylphenyl)-1,2-benzothiazol-3-one] is higher in EC50: 0.056 µM for the first, over 30 µM for the second.

Going from `Nc1c(C(=O)NCC2CCCO2)sc2nc3c(c(-c4ccco4)c12)CC/C3=C/c1ccco1` (stereo unspecified) [UNM-0000305796] to `CC(=O)OCCCNc1cc(Sc2nc3ccccc3s2)c2nonc2c1[N+](=O)[O-]` [MLS000521052], the EC50 falls from over 30 µM to 0.016 µM. The second is the more potent here.

First: Cc1cc(Cl)ccc1/N=c1/ssnc1Cl [MLS000539990]
Second: CCC(=O)NC(c1ccc(C)cc1)c1cc([N+](=O)[O-])c2cccnc2c1O (stereo unspecified) [MLS000553854]
The EC50 of the first is 11-fold lower: 0.115 µM for the first, 1.24 µM for the second.

For `CC1(C)OC(=O)C(=Cc2ccc(-c3ccc(S(N)(=O)=O)cc3)o2)C(=O)O1` [SMR000273939], the EC50 was 0.245 µM.

Same assay, conditions: inactive by the depositor's call

`CCOc1ccccc1-c1c2cc(O)c(=O)cc-2oc2cc(O)c(O)cc12` [MLS000578271] showed an EC50 of 4.69 µM.
